This passage reports solubility results from ChEMBL document CHEMBL1759970, “Design, synthesis and SAR of novel ethylenediamine and phenylenediamine derivatives as factor Xa inhibitors” (Bioorg Med Chem Lett, 2011).

A short description of data set [1]: physchem. Particulars: buffer, pH 6.8.
Description: Solubility of compound at pH 6.8
Data set [2] can be described thus: physchem. The note with it: buffer, pH 1.2.
Description: Solubility of compound at pH 1.2

In brackets after ≈: the same amount, converted by molar mass. Some results are limits rather than exact numbers.

As for `CC(Oc1ccc(NC(=O)c2cc3cc(Cl)ccc3[nH]2)c(NC(=O)c2nc3c(s2)CN(C)CC3)c1)C(=O)O` (centres undefined), the results for the solubility in “physchem [1]” and in “physchem [2]” were 0.825 mg/mL (≈ 1490 µM) and 0.256 mg/mL (≈ 462 µM), respectively.
With `CCOC(=O)c1ccc(NC(=O)c2nc3c(s2)CN(C)CC3)c(NC(=O)c2cc3cc(Cl)ccc3[nH]2)c1`, the solubility in the data set “physchem [1]” was less than 0.001 mg/mL; in the data set “physchem [2]”, 0.0011 mg/mL (≈ 2.04 µM).

What is called solubility is the dissolved amount per volume that the medium holds. Low readings indicate a poorly soluble substance, high ones a readily soluble substance.
